Laboratory results published in patent US20230365673A1, “MEANS FOR REDUCING RADIO- AND CHEMOTHERAPY RESISTANCE AND ADVERSE EFFECTS” (JOHANN WOLFGANG GOETHE-UNIVERSITÄT FRANKFURT AM MAIN, priority 2020, published 2023).

Tests used:
[1] = tested on: primary mouse colon fibroblasts; assay: Inflammatory gene expression (RT-qPCR/RNAseq) in fibroblasts treated with APTKA conditioned medium; assay type: cell-based
Method: (A) Schematic illustration of APTKA or APTK organoids supernatant collection and treatment of primary mouse colon fibroblasts of unchallenged wildtype C57BL/6 mice. […] (F) Relative expression analysis by RT-qPCR of inflammatory genes in untreated wildtype and APTKA conditioned medium treated fibroblasts in the presence of IKKß inhibitor ML120B (30 μM) and p38 MAPK inhibitor SB203580 (10 μM) for 24 h (n=4 independent wells per group). Data are mean±SD. p<0.05 by one-way ANOVA followed by Tukey's multiple comparisons test. Representative results from one experiment which has been independently repeated 3 times. (G and H) RNA sequencing analysis of APTKA (n=3) and APTK (n=3) organoids: (G) heat map analysis; (H) differentially expressed cytokines in APTKA (Log 2 fold change≤−1) compared to APTK organoids (log 2 fold Change≥1). p-value<0.05. (I) RT-qPCR analysis of inflammatory genes in APTKA conditioned fibroblasts treated with control IgG, α-IL-1α, α-IL-33, α-TNF-α, α-BAFF or α-CXCL16 neutralizing antibodies (2 μg/mL each) for 24 h (n=4 independent wells per group). Data are mean±SD. **** p<0.0001 by one-way ANOVA followed by Tukey's multiple comparisons test. Experiment performed twice. (J) RNA expression profiles of inflammatory genes in APTKA conditioned fibroblasts stimulated for 24 h then subjected to anakinra (10 μg/mL), APTKA fresh or regular medium treatments for another 24 h (n=4 independent wells per condition). Data are mean±SD; p<0.05 by one-way ANOVA followed by Tukey's multiple comparisons test. Representative results from one experiment which has been independently repeated 2 times.
To examine whether APTK and APTKA tumour organoids differentially affect surrounding fibroblasts in tumours directly in a paracrine manner, supernatants were collected from both tumour organoid lines and treated primary intestinal fibroblasts of unchallenged wildtype mice for 24 hours with the two different tumour-conditioned media ex vivo (FIG. 3A). RNAseq analysis confirmed distinct gene expression patterns in fibroblasts exposed to the two organoid supernatants (FIG. 3B).
The inventors then aimed to identify the upstream factors secreted by APTKA organoids that were responsible for activating NF-κB and p38 in fibroblasts. To this end RNAseq analysis of APTK and APTKA tumour organoids were performed and identified several differentially expressed genes encoding cytokines (FIG. 3G, H). Using neutralizing antibodies, NF-κB and p38 inducing cytokines TNFα, IL-1α, IL-33, BAFF or CXCL16 were blocked in APTKA supernatants and expression of Cxcl1, Cxcl2, Cxcl5 and Ilia as inflammatory marker genes in fibroblasts was examined.
To do so, fibroblasts were stimulated for 24 hours with APTKA conditioned medium before adding anakinra, adding fresh APTKA medium or changing medium to regular medium.

[2] = tested on: APTKA conditioned fibroblasts; assay: Fibroblast morphology after fractionated irradiation (3×2 Gy); assay type: cell-based, mouse
Method: (A) Schematic illustration of APTKA organoids supernatant collection and treatment of colon fibroblasts from unchallenged wildtype C57BL/6 mice for 12 h followed by 3×2 Gy irradiation. Microscopic, proteomic & transcriptomic analysis were performed 72 h post first irradiation. (B) Microscopic captures of non-irradiated wildtype (WT) and APTKA conditioned fibroblasts. Remaining captures belong to irradiated fibroblasts: WT, IL-1α (1 μg/mL) stimulated WT, and APTKA conditioned media minus or plus anakinra (20 μg/mL) treated fibroblasts. Scale bars=200 μm. (C) Mass spectrometric analysis of matrisome profiles of 3×2 Gy irradiated (n=8) and non-irradiated (n=8) APTKA conditioned fibroblasts. […] (G) Immunoblot analysis of untreated and irradiated APTKA conditioned fibroblasts. Representative results from one experiment which has been independently repeated 2 times. (H) SA-ß gal staining of untreated and irradiated APTKA fibroblasts. Scale bars=100 μm. (I and J) p21 and pH2AX immunofluorescent staining of untreated and irradiated APTKA fibroblasts. Scale bars=[…]. Data are mean±SD. ** […] and *** p<0.001 by t-test. (K) Nitrite concentration determined by Griess assay in conditioned media from WT, APTK media, APTKA media, IL-1α (1 μg/mL) stimulated and APTKA plus anakinra (20 μg/mL) treated fibroblasts for 72 h (n=10 independent wells per group). […]

| Substance | expression of Cxcl1, Cxcl5 and Mmp13 in already polarized fibroblasts ([1]; 24 h APTKA conditioned medium, then anakinra 10 μg/mL for another 24 h) | upregulation of pro-inflammatory genes in fibroblasts ([1]; APTKA conditioned medium plus anakinra, data not shown) | APTKA-induced elongated, spindle like morphology after irradiation ([2]; wildtype fibroblasts, APTKA conditioned medium plus anakinra 20 μg/mL) | transcriptomic profile induced in fibroblasts ([1]; recombinant IL-1α alone, compared with APTKA supernatant, data not shown) | fibroblast morphology after irradiation ([2]; recombinant IL-1α 1 μg/mL alone) |
| --- | --- | --- | --- | --- | --- |
| anakinra: Kineret®, an interleukin-1 receptor antagonist | completely reverted expression of these genes | prevented upregulation of pro-inflammatory genes | prevented the APTKA-induced phenotype |  |  |
| recombinant IL-1α: recombinant cytokine used to stimulate fibroblasts |  |  |  | sufficed to induce a similar transcriptomic profile as APTKA supernatant | sufficient to cause a comparable morphology after irradiation |
